Data set [1] can be described thus: Half life in cynomolgus monkey at 10 mg/kg, po. It counts as ADME, organism-based, Macaca fascicularis. Particulars: in vivo.
A further data set can be described thus: in vivo. The following applies: Sprague-Dawley, rat, iv, 2 mg/kg.
Data set [2] is described as follows: in vitro. The following applies: human, plasma.
A short description of data set [3]: Oral bioavailability in Beagle dog at 10 mg/kg. It is filed as ADME, organism-based, Canis lupus familiaris. Particulars: in vivo.
Data set [4] is described as follows: Clearance in Beagle dog at 2 mg/kg, iv. It is filed as ADME, organism-based, Canis lupus familiaris. The following applies: in vivo.
The nature of data set [5]: Half life in Sprague-Dawley rat at 2 mg/kg, iv. It counts as ADME, organism-based. Particulars: in vivo.
Data set [6] can be described thus: Volume of distribution at steady state in Beagle dog at 2 mg/kg, iv. It counts as ADME, organism-based, Canis lupus familiaris. Particulars: in vivo, read-out: Vdss.
Data set [7] in a line: in vitro. Particulars: human, whole blood.
The nature of data set [8]: AUC in Beagle dog at 10 mg/kg, po. The following applies: in vivo. It counts as ADME, organism-based, Canis lupus familiaris.
A further data set has as its system Plasma. As to the kind of experiment: Plasma concentration in rat at 10 mg/kg, po measured at 12 hrs post dose. Particulars: in vivo. It is filed as ADME, organism-based.
Data set [9] can be described thus: Cmax in Sprague-Dawley rat at 2 mg/kg, iv. It counts as ADME, organism-based. On the set-up: dose 2 mg/kg, route intravenous. Particulars: in vivo.
The nature of data set [10]: Volume of distribution at steady state in cynomolgus monkey at 1.23 mg/kg, iv. It counts as ADME, organism-based, Macaca fascicularis. The following applies: in vivo, read-out: Vdss.
A short description of data set [11]: Volume of distribution at steady state in Sprague-Dawley rat at 2 mg/kg, iv. It is filed as ADME, organism-based. The following applies: in vivo, read-out: Vdss.
The nature of data set [12]: Cmax in Sprague-Dawley rat at 20 mg/kg, po. It counts as ADME, organism-based. On the set-up: dose 20 mg/kg, route oral. Particulars: in vivo.
The nature of data set [13]: Clearance in cynomolgus monkey at 1.23 mg/kg, iv. It counts as ADME, organism-based, Macaca fascicularis. Particulars: in vivo.
Data set [14] is described as follows: Cmax in Beagle dog at 10 mg/kg, po. It counts as ADME, organism-based, Canis lupus familiaris. On the set-up: dose 10 mg/kg, route oral. The following applies: in vivo.
The nature of data set [15]: Clearance in Sprague-Dawley rat at 2 mg/kg, iv. It counts as ADME, organism-based. Particulars: in vivo.
The nature of data set [16]: AUC in cynomolgus monkey at 10 mg/kg, po. It counts as ADME, organism-based, Macaca fascicularis. Particulars: in vivo.
Data set [17] is described as follows: Cmax in cynomolgus monkey at 1.23 mg/kg, iv. It is filed as ADME, organism-based, Macaca fascicularis. The arrangement: dose 1.23 mg/kg, route intravenous. Particulars: in vivo.
Data set [18] in a line: Oral bioavailability in cynomolgus monkey at 10 mg/kg. The following applies: in vivo. It is filed as ADME, organism-based, Macaca fascicularis.
Data set [19] in a line: AUC in cynomolgus monkey at 1.23 mg/kg, iv. It is filed as ADME, organism-based, Macaca fascicularis. Particulars: in vivo.
Data set [20] in a line: AUC in Sprague-Dawley rat at 20 mg/kg, po. It is filed as ADME, organism-based. Particulars: in vivo.
Data set [21] is described as follows: Plasma concentration in rat at 10 mg/kg, po measured at 1 hr post dose. It is filed as ADME, organism-based.
Data set [22] is described as follows: Half life in cynomolgus monkey at 1.23 mg/kg, iv. It is filed as ADME, organism-based, Macaca fascicularis. The following applies: in vivo.
Data set [23] is described as follows: Half life in Sprague-Dawley rat at 20 mg/kg, po. It counts as ADME, organism-based. Particulars: in vivo.
Data set [24] in a line: Cmax in cynomolgus monkey at 10 mg/kg, po. It is filed as ADME, organism-based, Macaca fascicularis. The arrangement: dose 10 mg/kg, route oral. The following applies: in vivo.
Data set [25] in a line: AUC in Beagle dog at 2 mg/kg, iv. It counts as ADME, organism-based, Canis lupus familiaris. Particulars: in vivo.
Data set [26] is described as follows: Cmax in Beagle dog at 2 mg/kg, iv. It is filed as ADME, organism-based, Canis lupus familiaris. On the set-up: dose 2 mg/kg, route intravenous. Particulars: in vivo.
A short description of data set [27]: in vitro. Particulars: mouse, whole blood.

For `C=CC(=O)N1CCN(CCCn2c(=O)c(-c3c(Cl)c(OC)cc(OC)c3Cl)cc3cnc(NC)nc32)CC1` [PRN-1371], the half-life (usually the time needed for the level to fall by half in the phase considered) in data set [1] is 29.2 min; in data set [5], 45.8 min; in data set [22] it was 20.9 min; in [23] it was 226 min. Further, the AUC (as a rule, concentration integrated over time) was determined as 208 ng·h/mL in “in vivo”; 1340 ng·h/mL in [8]; 84.4 ng·h/mL in data set [16]; 472 ng·h/mL in data set [19]; 4350 ng·h/mL in data set [20]; 284 ng·h/mL in data set [25]. Moreover, the fraction remaining (in general, what is left of the initial amount, in per cent) at 2 h in the data set “in vitro [2]” was 70%; in “in vitro [7]”, 73%. Besides, the bioavailability (in general, dose-corrected exposure relative to a reference, in per cent) in data set [3] worked out at 94%; in data set [18], 2.3%. Moreover, the clearance (commonly the volume of plasma or blood freed of the substance per unit of time) in data set [4] was found to be 117 mL/min/kg; in data set [13], 42.9 mL/min/kg; in [15], 160 mL/min/kg. Further, the results for the Vd in data set [6], in data set [10] and in data set [11] were 2.9 L/kg, 1.14 L/kg and 7.2 L/kg, respectively. In addition, the Drug uptake result in the data set on Plasma was “Not Active”. Moreover, the Cmax (usually the peak of the concentration-time curve) is 596 ng/mL in data set [9]; 1780 ng/mL in [12]; 1100 ng/mL in data set [14]; 999 ng/mL in data set [17]; 95.8 ng/mL in [24]; 1090 ng/mL in data set [26]. For the same molecule, the concentration at 1 h in data set [21] turned out to be 538 ng/mL.

In “in vitro [27]”, `C=CC(=O)Nc1ccc(CCn2c(=O)c(-c3cc(OC)cc(OC)c3Cl)cc3cnc(NC)nc32)cn1` showed a half-life of 51 min.
